Reference: patent US10543162B2 (Rutgers, The State University of New Jersey, priority 2015, dated 2020)

How the values were obtained:
[1] = Dienol (4) Log P determination by reverse-phase HPLC; assay type: physicochemical; settings: for chromatographic logP: from HPLC log kw via calibration curve of reference samples' published Log Po,w, read-out: Calculated Log P Values; for Calculated kw: retention factor at 100% buffer, extrapolated from HPLC retention factors at MeOH:buffer 45:55→60:40, 25° C.
Procedure: Log P, partitioning coefficient of respective compounds between a hydrophilic (aqueous) and lipophilic (oil) phase, studies were conducted to investigate the relative hydrophobicity of Dienols (4). Using HPLC equipped with an XTerra reverse-phase C18 (RP18) 3.5 μm 4.6×150 mm column (Waters, Milford, Mass.) and Waters 2695 Separations Module, sample retention times were analyzed via a Waters 2487 Dual λ Absorbance Detector monitoring 254 and 270 nm. Mobile phases of HPLC grade methanol (MeOH) and 50 mM KH2PO4 with 1% formic acid in HPLC grade water were utilized at varying ratios (45:55→60:40) and run at 1 mL/min flow rate and 25° C. (Ayouni, et al., Chromatographia 2005, 62, (5-6), 251-255). All samples were first dissolved in DMSO and subsequently diluted with phosphate-buffer saline (PBS) to acquire 1% DMSO solutions and filtered through 0.22 μm PVDF syringe filters prior to autoinjection (20 μL).
Dienol retention factor (k) for each methanol concentration was calculated according to equation one, where tR and t0 are the retention times of the Dienols and dead time, as determined by the injection of sodium nitrate (Ayouni, et al., Chromatographia 2005, 62, (5-6), 251-255), respectfully. From the obtained retention factors the kw, retention factor at 100% buffer, was extrapolated. Hydroxybenzyl alcohol, benzyl alcohol, 2-phenylethanol, methylparaben, anisole, toluene, and thymol were used as reference samples and their retention times acquired. Using reference samples' published Log Po,w values (OECD Nuclear Energy Agency.; Organisation for Economic Co-operation and Development. In OECD guidelines for the testing of chemicals 117, Organisation for Economic Co-Operation and Development: Paris, 2004), a calibration curve was generated in which Log Po,w values were plotted on the y-axis whereas log kw values, obtained from the same method as above, were plotted on the x-axis (Ouimet, et al., Biomacromolecules 2015, 16, 2911-2919). Dienol Log P values were then calculated from the curve using equation 2. kw=(tR−t0)/t0 Equation 1 Log P=slope×log kw+y−intercept Equation 2
Thus, Dienol Log P values were extrapolated from an HPLC method to determine lipophilicity (OECD Nuclear Energy Agency.; Organisation for Economic Co-operation and Development. In OECD guidelines for the testing of chemicals 117, Organisation for Economic Co-Operation and Development: Paris, 2004). Retention factors (k) were calculated according to equation 1 for each concentration of MeOH and kw values extrapolated based off the retention times (Table 1).

3T3 mouse fibroblasts = assay: Cytotoxicity / cytocompatibility (MTS cell viability); assay type: cell-based; settings: 1000 μM, after 24 h
Procedure: In vitro cytocompatibility studies were performed by culturing 3T3 mouse fibroblasts in cell media (Dulbecco's Modified Eagle Medium supplemented with 10% Fetal Bovine Serum, 1% Penicillin Streptomycin, and 1% L-glutamate) containing the KA poly(carbonate-esters). Polymers (5a-5c, 6a-6e) and Dienols (4a-4e) were first sterilized under UV at λ=254 nm for 900 s (Spectronics Corporation, Westbury, N.Y.) and subsequently dissolved in DMSO to acquire a stock solution. The stock solution was then serial diluted with cell media. Cells were seeded in a 96-well plate at 2,000 cells/well in […]. Following incubation for 1 h, polymer-containing media in 1% DMSO, at concentrations capable of inhibiting tyrosinase (0.1 mg/mL, 0.01 mg/mL and 0.001 mg/mL) were added to allocated wells in a 96-well plate and incubated at 37° C. DMSO (1%) in cell media was used as a negative control.
Cell viability was determined using CellTiter 96® Aqueous One Solution Cell Proliferation Assay. After 24 h, 48 h, and 72 h incubation with polymers, 20 μL of (3-(4,5-dimethylthiazol-2-yl)-5-(3-carboxymethoxyphenyl)-2-(4-sulfophenyl)-2H-tetrazolium) (MTS) reagent was added to each well and further incubated for 4 h at 37° C. The absorbance was then recorded with a microplate reader (Coulter, Boulevard Brea, Calif.) at 490 nm. […]

Compound | chromatographic logP [1] | Calculated kw [1] | cytocompatibility (3T3 mouse fibroblasts)
O=C(CCCCCCCC(=O)OCc1cc(=O)c(O)co1)OCc1cc(=O)c(O)co1 [Compound 4c, KA (Azelaic) Dienol] | 2.59 | 16.0 | –
O=C(CCCCCCCCC(=O)OCc1cc(=O)c(O)co1)OCc1cc(=O)c(O)co1 [Compound 4d, KA (sebacic) Dienol] | 3.1 | 31.6 | –
O=C(COCCOCCOCC(=O)OCc1cc(=O)c(O)co1)OCc1cc(=O)c(O)co1 [Compound 4e, KA (Tetraglycolic) Dienol] | 0.235 | 0.688 | –
O=c1cc(CO)occ1O [Kojic Acid, 5-Hydroxy-2-(hydroxymethyl)-4-pyrone] | – | – | slightly cytotoxic

Second part, led by results:

chromatographic logP [1] | Calculated kw [1] | Compound | cytocompatibility (3T3 mouse fibroblasts)
0.353 | 0.806 | O=C(CCC(=O)OCc1cc(=O)c(O)co1)OCc1cc(=O)c(O)co1 [Compound 4a, KA (succinic) Dienol] | –
1.17 | 2.40 | O=C(CCCCC(=O)OCc1cc(=O)c(O)co1)OCc1cc(=O)c(O)co1 [Compound 4b, KA (adipic) Dienol] | –
